Assay [1] deals with HIV-1IIIB-mediated cell-cell fusion (H9/HIV-1IIIB-infected cells with MT-2 cells). In words: Dye transfer assay of HIV-1 mediated cell-cell fusion. It is filed as cell-based. The following applies: 37° C. for 2 h; read-out: IC50, inhibition of cell-cell fusion. As for the experimental part:
A dye transfer assay was used for detection of HIV-1 mediated cell-cell fusion as previously described in (Jiang, S., et al. Antimicrob.Agents Chemother. 2004; 48: 4349-4359. In brief, H9/HIV-1IIIB-infected cells were labeled with a fluorescent reagent, Calcein-AM (Molecular Probes, Inc., Eugene, OR) and then incubated with MT-2 cells (ratio =1:5) in 96-well plates at 37° C. for 2 h in the presence or absence of peptides. The fused and unfused calcein-labeled HIV-1-infected cells were counted under an inverted fluorescence microscope (Zeiss, Germany) with an eyepiece micrometer disc. The inhibition percent of cell-cell fusion and the IC50 values were calculated as described. […] The inhibitory activity of FS-01 on HIV-1-mediated infection was conducted too.

Assay [2] relates to 92TH009 (clade E, R5). In words: Primary HIV-1 isolate infection of PBMC, p24 ELISA. It is filed as cell-based. The conditions noted are these: p24 production, 7 days post infection. The protocol: (§1) The inhibitory activity of FS-01 against primary HIV-1 isolates was determined as previously described in (Jiang, S., et al. ANTIMICROB. AGENTS CHEMOTHER. 2004; 48: 4349-4359. The peripheral blood mononuclear cells (PBMC) were isolated from the blood of healthy donors using a standard density gradient (Histopaque-1077, Sigma) centrifugation. The cells were plated in 75-cm plastic flasks and incubated at 37° C. for 2 h. The nonadherent cells were collected and resuspended at 5×10^5/mL in RPMI 1640 medium containing 10% FBS, 5 μg of phytohemagglutinin (PHA)/mL, and 100 U of interleukin-2/mL, followed by incubation at 37° C. for 3 days. The PHA-stimulated cells were infected with the corresponding primary HIV-1 isolates at a multiplicity of infection (MOI) of 0.01 in the absence or presence of FS-01 at graded concentrations. Culture media were changed every 3 days. The supernatants were collected 7 days post infection and tested for p24 antigen by ELISA. The percent inhibition of p24 production and IC50/IC90 values were calculated.
Background: ELISA stands for enzyme-linked immunosorbent assay.

In assay [3] the test system is 92UG001 (clade D, X4R5). Kind of assay: Primary HIV-1 isolate infection of PBMC, p24 ELISA. The conditions noted are these: p24 production, 7 days post infection. It is filed as cell-based. As for the experimental part: as §1
The subject of assay [4] is 92US657 (clade B, R5). Kind of assay: Primary HIV-1 isolate infection of PBMC, p24 ELISA. The following applies: p24 production, 7 days post infection. Format: cell-based. The protocol: as §1
Assay [5] deals with 93BR020 (clade F, X4R5). In words: Primary HIV-1 isolate infection of PBMC, p24 ELISA. The following applies: p24 production, 7 days post infection. Format: cell-based. As for the experimental part: as §1
Assay [6] has as its system 93IN101 (clade C, R5). Kind of assay: Primary HIV-1 isolate infection of PBMC, p24 ELISA. The conditions noted are these: p24 production, 7 days post infection. It is filed as cell-based. As for the experimental part:
as §1

For assay [7], the system named is 94UG103 (clade A, X4R5). Kind of assay: Primary HIV-1 isolate infection of PBMC, p24 ELISA. Format: cell-based. The conditions noted are these: p24 production, 7 days post infection. As for the experimental part: as §1
For assay [8], the system named is NL4-3 (N42S). Format: cell-based, HIV-1. The following applies: T20-sensitive (S) virus, MT-2 cells, p24, fourth day; read-out: IC50 (Mean ± SD). As for the experimental part:
(§2) Two T20-sensitive and five T20-resistant strains with well defined genetic mutations conferring the resistance were used in this experiment (Rimsky, L. T., et al. J.VIROL. 1998; 72: 986-993). Briefly, 1×10^4 MT-2 cells were infected with HIV-1 isolates at 100 TCID50 (50% tissue culture infective dose) in 200 μl RPMI 1640 medium containing 10% FBS in the presence or absence of FS-01 at graded concentrations overnight. Then the culture supernatants were removed and fresh media without FS-01 were added. On the fourth day post-infection, 100 μl of culture supernatants were collected from each well, mixed with equal volumes of 5% Triton X-100 and assayed for p24 antigen by ELISA.

Assay [9] has as its system NL4-3 (N42T/N43K). It is filed as cell-based, HIV-1. The following applies: T20-resistant (R) virus, MT-2 cells, p24, fourth day; read-out: IC50 (Mean ± SD). As for the experimental part: as §2
For assay [10], the system named is NL4-3 (V38A). It is filed as cell-based, HIV-1. The conditions noted are these: T20-resistant (R) virus, MT-2 cells, p24, fourth day; read-out: IC50 (Mean ± SD). As for the experimental part:
as §2

Assay [11] deals with NL4-3 (V38A/N42D). It is filed as cell-based, HIV-1. The conditions noted are these: T20-resistant (R) virus, MT-2 cells, p24, fourth day; read-out: IC50 (Mean ± SD). As for the experimental part:
as §2

The test system of assay [12] is NL4-3 (V38A/N42T). It is filed as cell-based, HIV-1. The conditions noted are these: T20-resistant (R) virus, MT-2 cells, p24, fourth day; read-out: IC50 (Mean ± SD). The protocol: as §2
In assay [13] the test system is NL4-3 (V38E/N42S). It is filed as cell-based, HIV-1. The following applies: T20-resistant (R) virus, MT-2 cells, p24, fourth day; read-out: IC50 (Mean ± SD). The protocol: as §2
The test system of assay [14] is NL4-3 (parental). Format: cell-based, HIV-1. The conditions noted are these: T20-sensitive (S) virus, MT-2 cells, p24, fourth day; read-out: IC50 (Mean ± SD). The protocol: as §2
The subject of assay [15] is POPC LUVs. In words: Isothermal titration calorimetry (ITC), peptide-lipid binding. The conditions noted are these: LUVs injected into peptide solution. The protocol:
So, the POPC LUV liposome system was employing to investigate the binding activity of FS-01 to lipid membranes. Large unilamellar vesicles (LUVs) of 1-palmitoyl-2-oleoyl-sn-glycero-3-phosphocholine (POPC) liposome were prepared as previously described (Liu, S., et al. J.BIOL.CHEM. 2007; 282: 9612-9620). Briefly, 20 mg of POPC stock solution was dried under a stream of nitrogen and stored in vacuum overnight to completely remove trace amounts of organic solvent. The dried lipid film was suspended by vortexing in 2 mL PBS buffer. The resultant multilamellar vesicle suspension was freeze-thawed for 5 cycles and then successively extruded through two stacked polycarbonate filters (0.1 μm) 13 times using an Avanti miniextruder.
Solutions were degassed under vacuum prior to use. LUVs of POPC were injected into the chamber containing a peptide solution or buffer only (as a control). The heats generated in control experiments by injecting lipid vesicles into buffer without a peptide were subtracted from the heats produced in the corresponding peptide-lipid binding experiments. Data acquisition and analyses were performed using MicroCal's Origin software (Version 7.0).
(ITC needs no label: the signal is the heat of the interaction.)

The IC50 is the concentration needed to halve the response being measured. Broadly, the IC90 is the concentration at which the effect reaches the 90% level.

For the substance enfuvirtide, the IC50 in assay [1] was found to be 21.4 nM; in assay [2] (read-out: IC50 (Mean ± SD)), 221 ± 58.3 nM; in [3] (read-out: IC50 (Mean ± SD)), 185 ± 23.3 nM; in [4] (read-out: IC50 (Mean ± SD)), 41.5 ± 8.76 nM; in assay [5] (read-out: IC50 (Mean ± SD)), 73.7 ± 8.57 nM; in assay [6] (read-out: IC50 (Mean ± SD)) it was 47.2 ± 4.73 nM. Moreover, the IC50 in assay [7] (read-out: IC50 (Mean ± SD)) is 83.8 ± 12.1 nM; in [8], 26.9 ± 13 nM; in assay [9], > 2000 nM; in assay [10] it was > 2000 nM; in [11], > 2000 nM; in assay [12], > 2000 nM. Moreover, the half-inhibitory concentration (IC50) in [13] is > 2000 nM; in assay [14], 22 ± 1.19 nM. In addition, the IC90 worked out at 724 ± 56.6 nM in assay [2] (read-out: IC90 (Mean ± SD)); 501 ± 70.8 nM in assay [3] (read-out: IC90 (Mean ± SD)); 177 ± 15.9 nM in [4] (read-out: IC90 (Mean ± SD)); 204 ± 28 nM in [5] (read-out: IC90 (Mean ± SD)); 130 ± 16.8 nM in assay [6] (read-out: IC90 (Mean ± SD)); 151 ± 8.8 nM in assay [7] (read-out: IC90 (Mean ± SD)). For the same substance, the “binding constant to POPC LUVs” value in assay [15] is reported as “about 5×10^4 M^−1”.

(Values after US20100021427A1, “Use of Antiviral Peptides For Treatment of Infections Caused by Drug-Resistant HIV” (Tianjin FusoGen Pharmaceuticals, Inc., priority 2008, published 2010).)
